Measured values from PubChem BioAssay AID330 (DTP/NCI, 2004).
Values joined by “and” are separate entries in the source; they are usually repeats but may differ in a detail not shown here. Equal values may be shown once. Toxic doses and inconclusive results are not listed. How the source made its calls: active means survival T/C of 150% or more; inactive means T/C below 125% in these data.

Tested on: P388 leukemia ip, CD2F1 mice, survival T/C
Test: NCI In Vivo Anticancer Drug Screen. Data for tumor model P388 Leukemia (intraperitoneal) in CD2F1 (CDF1) mice
Details: endpoint: median survival time, higher = longer survival
In short: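 Mice carrying the transplanted tumor received test compound or vehicle. Survival was recorded in each group, and the value is the treated-group measurement divided by that of the vehicle-treated control group.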

[1] = dose: 50.0 mg/kg/injection, schedule: Q01DX009 (ip), vehicle: saline
[2] = dose: 100.0 mg/kg/injection, schedule: Q01DX009 (ip), vehicle: saline
[3] = dose: 200.0 mg/kg/injection, schedule: Q01DX009 (ip), vehicle: saline
[4] = dose: 60.0 mg/kg/injection, schedule: Q01DX005 (ip), vehicle: Klucel (hydroxypropylcellulose) (HPC)
[5] = dose: 120.0 mg/kg/injection, schedule: Q01DX005 (ip), vehicle: Klucel (hydroxypropylcellulose) (HPC)
[6] = dose: 240.0 mg/kg/injection, schedule: Q01DX005 (ip), vehicle: Klucel (hydroxypropylcellulose) (HPC)
[7] = dose: 100.0 mg/kg/injection, schedule: Q01DX009 (ip), vehicle: saline with Tween-80
[8] = dose: 200.0 mg/kg/injection, schedule: Q01DX009 (ip), vehicle: saline with Tween-80
[9] = dose: 400.0 mg/kg/injection, schedule: Q01DX009 (ip), vehicle: saline with Tween-80
[10] = dose: 50.0 mg/kg/injection, schedule: Q01DX009 (ip), vehicle: saline with Tween-80
[11] = dose: 50.0 mg/kg/injection, schedule: Q01DX005 (ip), vehicle: Klucel (hydroxypropylcellulose) (HPC)
[12] = dose: 100.0 mg/kg/injection, schedule: Q01DX005 (ip), vehicle: Klucel (hydroxypropylcellulose) (HPC)
[13] = dose: 200.0 mg/kg/injection, schedule: Q01DX005 (ip), vehicle: Klucel (hydroxypropylcellulose) (HPC)
[14] = dose: 25.0 mg/kg/injection, schedule: Q01DX005 (ip), vehicle: saline with Tween-80
[15] = dose: 50.0 mg/kg/injection, schedule: Q01DX005 (ip), vehicle: saline with Tween-80

Measured: T/C

O=C1CCC2=C3C4CCCC5OC6CC(=O)CCC6=C(C6CCCC(OC2C1)C36)C54 (stereo unspecified)
inactive: [1] 96 % of control | [2] 100 % of control | [3] 96 % of control | dose: 400.0 mg/kg/injection, schedule: Q01DX009 (ip), vehicle: saline 100 % of control

O=C(O)CSCc1cc2c3ccccc3sc2c2ccccc12
inactive: [4] 100 % of control | [5] 93 % of control | [6] 96 % of control

COc1cccc2c1C(=O)c1c(O)c3c(c(O)c1C2=O)C[C@@](O)(C(O)CO)C[C@@H]3OC1CC(N(Cc2ccccc2)Cc2ccccc2)C(O)C(C)O1 (stereo partly specified)
active: dose: 50.0 mg/kg/injection, schedule: Q04DX003 (ip), vehicle: water 170 % of control | dose: 100.0 mg/kg/injection, schedule: Q04DX003 (ip), vehicle: water 209 % of control and 212 % of control
inactive: dose: 6.25 mg/kg/injection, schedule: Q04DX003 (ip), vehicle: water 100 % of control | dose: 12.5 mg/kg/injection, schedule: Q04DX003 (ip), vehicle: water 109 % of control | dose: 25.0 mg/kg/injection, schedule: Q04DX003 (ip), vehicle: water 100 % of control

CCOC(=O)c1ccc(N(CC)CC)cc1
inactive: [7] 100 % of control | [8] 104 % of control | [9] 100 % of control

CC1(C)C(=O)C(C)(C)C1O[Si](C)(C)OC1C(C)(C)C(=O)C1(C)C
inactive: dose: 100.0 mg/kg/injection, schedule: Q04DX003 (ip), vehicle: Klucel (hydroxypropylcellulose) (HPC) 102 % of control | dose: 200.0 mg/kg/injection, schedule: Q04DX003 (ip), vehicle: Klucel (hydroxypropylcellulose) (HPC) 101 % of control | dose: 400.0 mg/kg/injection, schedule: Q04DX003 (ip), vehicle: Klucel (hydroxypropylcellulose) (HPC) 93 % of control

C=CO/C(C)=C(\[Se]c1ccccc1)C(C)=O
inactive: [1] 99 % of control | [2] 100 % of control | [3] 104 % of control

CNc1nc2c(C)ccc3[nH]c(NC)nc3c-2n1
inactive: dose: 8.0 mg/kg/injection, schedule: Q01DX005 (ip), vehicle: Klucel (hydroxypropylcellulose) (HPC) 95 % of control | dose: 16.0 mg/kg/injection, schedule: Q01DX005 (ip), vehicle: Klucel (hydroxypropylcellulose) (HPC) 100 % of control | dose: 32.0 mg/kg/injection, schedule: Q01DX005 (ip), vehicle: Klucel (hydroxypropylcellulose) (HPC) 90 % of control | dose: 64.0 mg/kg/injection, schedule: Q01DX005 (ip), vehicle: Klucel (hydroxypropylcellulose) (HPC) 88 % of control

CC(C)N1C(=O)C(C#N)=C(c2ccccc2)SC1c1ccccc1 (stereo unspecified)
inactive: dose: 3.13 mg/kg/injection, schedule: Q01DX009 (ip), vehicle: saline with Tween-80 104 % of control | dose: 6.25 mg/kg/injection, schedule: Q01DX009 (ip), vehicle: saline with Tween-80 101 % of control | dose: 12.5 mg/kg/injection, schedule: Q01DX009 (ip), vehicle: saline with Tween-80 106 % of control | [10] 94 % of control | [7] 99 % of control

CCOc1ccc(/C=N/NC(=S)NC23CC4CC(CC(C4)C2)C3)cc1OCC
inactive: dose: 30.0 mg/kg/injection, schedule: Q01DX005 (ip), vehicle: saline with Tween-80 108 % of control | dose: 60.0 mg/kg/injection, schedule: Q01DX005 (ip), vehicle: saline with Tween-80 102 % of control and 86 % of control | dose: 120.0 mg/kg/injection, schedule: Q01DX005 (ip), vehicle: saline with Tween-80 90 % of control

Cc1nn(Cc2ccccc2)c(C)c1-c1c(C)nn(Cc2ccccc2)c1C
inactive: [11] 104 % of control | [12] 103 % of control | [13] 99 % of control

COc1ccc2[nH]c3c(c2c1)C(c1ccccc1)c1ccccc1-3 (stereo unspecified)
inactive: dose: 12.5 mg/kg/injection, schedule: Q01DX005 (ip), vehicle: saline with Tween-80 100 % of control | [14] 88 % of control | [15] 90 % of control

C/C(=N\NC(N)=S)c1ccccc1O
inactive: dose: 50.0 mg/kg/injection, schedule: Q01DX009 (ip), vehicle: Klucel (hydroxypropylcellulose) (HPC) 99 % of control | dose: 100.0 mg/kg/injection, schedule: Q01DX009 (ip), vehicle: Klucel (hydroxypropylcellulose) (HPC) 111 % of control | dose: 200.0 mg/kg/injection, schedule: Q01DX009 (ip), vehicle: Klucel (hydroxypropylcellulose) (HPC) 102 % of control

COC1=CC(=O)C2CC=CC(CC(=O)O)C2(C)C1=O (stereo unspecified)
inactive: [11] 108 % of control | [12] 103 % of control

CC(C)C(C(O)c1ccccc1)[N+](=O)[O-] (stereo unspecified)
inactive: [7] 104 % of control | [8] 95 % of control | [9] 86 % of control

CC(=O)Nc1cccc2c1C(=O)OC2=O
inactive: [10] 100 % of control | [7] 109 % of control | [8] 108 % of control | [9] 102 % of control

CCOC(=O)Nc1cc2c(c(N)n1)N=C(c1ccc(OC)cc1)CN2
active: dose: 12.5 mg/kg/injection, schedule: Q04DX003 (ip), vehicle: Klucel (hydroxypropylcellulose) (HPC) 158 % of control | dose: 25.0 mg/kg/injection, schedule: Q01DX001 (ip), vehicle: Klucel (hydroxypropylcellulose) (HPC) 150 % of control | dose: 25.0 mg/kg/injection, schedule: Q04DX003 (ip), vehicle: Klucel (hydroxypropylcellulose) (HPC) 163 % of control
inactive: dose: 1.5 mg/kg/injection, schedule: Q01DX009 (ip), vehicle: Klucel (hydroxypropylcellulose) (HPC) 105 % of control | dose: 6.25 mg/kg/injection, schedule: Q01DX001 (ip), vehicle: Klucel (hydroxypropylcellulose) (HPC) 110 % of control | dose: 6.25 mg/kg/injection, schedule: Q04DX003 (ip), vehicle: Klucel (hydroxypropylcellulose) (HPC) 110 % of control

CCCCOC(=O)c1ccc(NC(=O)Nc2cc(C)ccc2C)cc1
inactive: [10] 96 % of control | [7] 94 % of control | [8] 91 % of control

O=C1NCC(COc2ccc([N+](=O)[O-])cc2)O1 (stereo unspecified)
inactive: [4] 109 % of control | [5] 90 % of control | [6] 93 % of control

OCC(O)/C=C/c1ccccc1 (stereo unspecified)
inactive: dose: 100.0 mg/kg/injection, schedule: Q01DX001 (ip), vehicle: Klucel (hydroxypropylcellulose) (HPC) 95 % of control | dose: 100.0 mg/kg/injection, schedule: Q04DX002 (ip), vehicle: saline with Tween-80 96 % of control | dose: 200.0 mg/kg/injection, schedule: Q01DX001 (ip), vehicle: Klucel (hydroxypropylcellulose) (HPC) 103 % of control | dose: 200.0 mg/kg/injection, schedule: Q04DX002 (ip), vehicle: saline with Tween-80 90 % of control | dose: 400.0 mg/kg/injection, schedule: Q01DX001 (ip), vehicle: Klucel (hydroxypropylcellulose) (HPC) 108 % of control | dose: 400.0 mg/kg/injection, schedule: Q04DX002 (ip), vehicle: saline with Tween-80 99 % of control

Ic1ncn(CCN2CCOCC2)c1I
inactive: dose: 25.0 mg/kg/injection, schedule: Q01DX005 (ip), vehicle: Klucel (hydroxypropylcellulose) (HPC) 88 % of control | [11] 97 % of control | [12] 94 % of control | [13] 97 % of control

COC(=O)CC1OCC=C2CN3CCC45C6=CC(=O)C(=O)C([N+](=O)[O-])=C6NC4C1C2CC35 (stereo unspecified)
inactive: dose: 7.5 mg/kg/injection, schedule: Q01DX005 (ip), vehicle: suspension in saline 101 % of control | dose: 15.0 mg/kg/injection, schedule: Q01DX005 (ip), vehicle: suspension in saline 100 % of control

N#Cc1ccc(NN=NCCCCl)cc1
inactive: dose: 25.0 mg/kg/injection, schedule: Q01DX005 (ip), vehicle: distilled water + Tween-80 95 % of control | [14] 100 % of control | dose: 50.0 mg/kg/injection, schedule: Q01DX005 (ip), vehicle: distilled water + Tween-80 93 % of control | [15] 100 % of control | dose: 100.0 mg/kg/injection, schedule: Q01DX005 (ip), vehicle: distilled water + Tween-80 95 % of control | dose: 100.0 mg/kg/injection, schedule: Q01DX005 (ip), vehicle: saline with Tween-80 121 % of control
